Experimental data taken from ChEMBL document CHEMBL1201862, “PubChem BioAssay data set” (2004).
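Each compound was tested at five concentrations against cells in 96-well plates for 48 hours. GI50: concentration for 50% inhibition of growth.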 Active and inactive are the calls of the source. Cut-off read from the data, not from the text of the source: active = GI50 up to about 1.1 µM and inactive = higher.

How the values were obtained:
Test in all cases: DTP human tumour cell line panel, 48 h
M14 = tested on: M14
HOP-62 = tested on: HOP-62
HOP-92 = tested on: HOP-92
NCI-H226 = tested on: NCI-H226
SR = tested on: SR
SK-MEL-28 = tested on: SK-MEL-28
RPMI-8226 = tested on: RPMI-8226
MOLT-4 = tested on: MOLT-4
K562 = tested on: K562
NCI-H522 = tested on: NCI-H522
HCC 2998 = tested on: HCC 2998
TK-10 = tested on: TK-10
NCI-H23 = tested on: NCI-H23
Hs-578T = tested on: Hs-578T
DU-145 = tested on: DU-145
EKVX = tested on: EKVX
MDA-MB-435 = tested on: MDA-MB-435
RXF 393 = tested on: RXF 393
LOX IMVI = tested on: LOX IMVI

| SMILES | GI50 (M14) | GI50 (HOP-62) | GI50 (HOP-92) | GI50 (NCI-H226) | GI50 (SR) | GI50 (SK-MEL-28) | GI50 (RPMI-8226) | GI50 (MOLT-4) | GI50 (K562) | GI50 (NCI-H522) | GI50 (HCC 2998) | GI50 (TK-10) | GI50 (NCI-H23) | GI50 (Hs-578T) | GI50 (DU-145) | GI50 (EKVX) | GI50 (MDA-MB-435) | GI50 (RXF 393) | GI50 (LOX IMVI) |
| --- | --- | --- | --- | --- | --- | --- | --- | --- | --- | --- | --- | --- | --- | --- | --- | --- | --- | --- | --- |
| O=C(c1ccccc1)c1c(CC(O)c2cccnc2)n(C(=O)c2ccccc2)c2ccccc12 (configuration not stated) | 19.1 µM (inactive) | 16 µM (inactive) | 15 µM (inactive) | 11.7 µM (inactive) | 13.5 µM (inactive) | 17.7 µM (inactive) | 15.8 µM (inactive) | 17.9 µM (inactive) | 21.6 µM (inactive) | 13.1 µM (inactive) | 16.5 µM (inactive) | 26.9 µM (inactive) | 16.5 µM (inactive) |  |  |  |  |  |  |
| C=C1[C@@](C)([C@@H]2CCCS2)[C@H]2C(C)=C[C@]1(C)n1c(=O)n(-c3ccccc3)c(=O)n12 | > 100 µM (inactive) | > 100 µM (inactive) |  | > 100 µM (inactive) |  | > 100 µM (inactive) | > 100 µM (inactive) | > 100 µM (inactive) |  | > 100 µM (inactive) | > 100 µM (inactive) | > 100 µM (inactive) | > 100 µM (inactive) | > 100 µM (inactive) | > 100 µM (inactive) | > 100 µM (inactive) | > 100 µM (inactive) |  |  |
| c1ccc2c(c1)ncn2CCn1ccnc1 | > 100 µM (inactive) | > 100 µM (inactive) |  | > 100 µM (inactive) |  | > 100 µM (inactive) | > 100 µM (inactive) | > 100 µM (inactive) | > 100 µM (inactive) | > 100 µM (inactive) | > 100 µM (inactive) | > 100 µM (inactive) | > 100 µM (inactive) | > 100 µM (inactive) | > 100 µM (inactive) | > 100 µM (inactive) | > 100 µM (inactive) | > 100 µM (inactive) | > 100 µM (inactive) |
| CN1N=C(c2ccncc2)OC1c1cccc(F)c1 (configuration not stated) | > 100 µM (inactive) | > 100 µM (inactive) |  | 68.5 µM (inactive) |  | > 100 µM (inactive) | > 100 µM (inactive) | > 100 µM (inactive) | > 100 µM (inactive) | > 100 µM (inactive) | > 100 µM (inactive) | > 100 µM (inactive) | > 100 µM (inactive) | > 100 µM (inactive) | > 100 µM (inactive) | > 100 µM (inactive) | > 100 µM (inactive) | > 100 µM (inactive) | > 100 µM (inactive) |
| N#Cc1c(N)nc(Sc2ccccc2N)c(C#N)c1-c1ccccc1 | 24.2 µM (inactive) | 22.1 µM (inactive) | 24.5 µM (inactive) | 47.2 µM (inactive) | 21 µM (inactive) | 28.2 µM (inactive) | 12.7 µM (inactive) | 11.6 µM (inactive) | 9.53 µM (inactive) |  | 15 µM (inactive) | 11.5 µM (inactive) | 13.3 µM (inactive) |  | 14.8 µM (inactive) | 16.2 µM (inactive) | 23.6 µM (inactive) |  | 12.9 µM (inactive) |
| c1ccc(Nc2nnc(-c3ccccc3Nc3ccccc3-c3nnc(Nc4ccccc4)s3)s2)cc1 | > 100 µM (inactive) | > 100 µM (inactive) | 0.703 µM (active) | > 100 µM (inactive) |  | > 100 µM (inactive) |  | 61.7 µM (inactive) | > 100 µM (inactive) | > 100 µM (inactive) | > 100 µM (inactive) | > 100 µM (inactive) | > 100 µM (inactive) |  | > 100 µM (inactive) | > 100 µM (inactive) | > 100 µM (inactive) | > 100 µM (inactive) | > 100 µM (inactive) |
| COC(=O)c1cc(OS(=O)(=O)C(F)(F)F)c(=O)n2c1CCCC2 | > 100 µM (inactive) | > 100 µM (inactive) |  | 9.2 µM (inactive) |  | > 100 µM (inactive) |  | > 100 µM (inactive) |  | > 100 µM (inactive) |  | > 100 µM (inactive) | > 100 µM (inactive) | > 100 µM (inactive) | > 100 µM (inactive) | > 100 µM (inactive) | > 100 µM (inactive) | > 100 µM (inactive) | > 100 µM (inactive) |
| CSc1n[n+](C)cc(N)c1N | > 100 µM (inactive) | > 100 µM (inactive) | 17.8 µM (inactive) | > 100 µM (inactive) | > 100 µM (inactive) | > 100 µM (inactive) | > 100 µM (inactive) | > 100 µM (inactive) | 39 µM (inactive) | > 100 µM (inactive) | > 100 µM (inactive) | > 100 µM (inactive) | > 100 µM (inactive) |  |  | > 100 µM (inactive) | > 100 µM (inactive) |  | > 100 µM (inactive) |
| CNC(=O)OCC1C2=C(C(=O)C(C)=C(N)C2=O)N2CC3C(N3C)C12OC (configuration not stated) | 7.24 µM (inactive) | 14.4 µM (inactive) | 23.7 µM (inactive) | 32.1 µM (inactive) | 0.867 µM (active) | 47.9 µM (inactive) | 23.8 µM (inactive) | 3.29 µM (inactive) | 25.6 µM (inactive) | 3.19 µM (inactive) | 12.4 µM (inactive) | 27.7 µM (inactive) | 1.53 µM (inactive) |  | 2.47 µM (inactive) | > 100 µM (inactive) | 38.1 µM (inactive) | 21.3 µM (inactive) | 9.91 µM (inactive) |
| C=C1CC(C)(c2ccc(Nc3nc4ccccc4c4occc34)cc2)OC1=O (configuration not stated) | 2 µM (inactive) | 12.5 µM (inactive) | 1.95 µM (inactive) | < 0.01 µM (active) | 1.63 µM (inactive) | 13.9 µM (inactive) | 1.69 µM (inactive) | 1.82 µM (inactive) | 4.71 µM (inactive) |  | 2.32 µM (inactive) | 4.86 µM (inactive) | 1.22 µM (inactive) |  | 8.13 µM (inactive) | 12.1 µM (inactive) | 1.91 µM (inactive) | 2.08 µM (inactive) | 1.95 µM (inactive) |
| Cc1ccc2c(c1)Nc1ccccc1P2(=O)O | > 100 µM (inactive) | > 100 µM (inactive) | > 100 µM (inactive) | > 100 µM (inactive) | > 100 µM (inactive) | > 100 µM (inactive) |  | > 100 µM (inactive) | > 100 µM (inactive) | > 100 µM (inactive) | > 100 µM (inactive) | > 100 µM (inactive) | > 100 µM (inactive) |  | > 100 µM (inactive) | > 100 µM (inactive) | > 100 µM (inactive) | > 100 µM (inactive) | > 100 µM (inactive) |
| CSC(=S)OC1C(CO[Si](C)(C)C(C)(C)C)OC2OC(C)(C)OC21 (configuration not stated) | 47 µM (inactive) | 18.4 µM (inactive) |  | 14.5 µM (inactive) | 13.7 µM (inactive) | 40.6 µM (inactive) | 16.3 µM (inactive) | 15.3 µM (inactive) | 17.1 µM (inactive) | 15.8 µM (inactive) | 21.3 µM (inactive) | 20.5 µM (inactive) | 19.9 µM (inactive) |  | 33.5 µM (inactive) | 20.3 µM (inactive) | 33.2 µM (inactive) | 20.6 µM (inactive) | 15.7 µM (inactive) |
